Data from patent US11603356B2, “Amorphous form of a complement component C5a receptor” (CHEMOCENTRYX, INC., priority 2019, dated 2023).
Values after ≈ are worked out from the molar mass of the structure shown. Read-outs that look alike come from different tables or passages of the source.

How the values were obtained:
[1] = Stability storage test (25° C./60% RH, 12 months; HPLC, KF, XRPD); format: physicochemical; details: for Specified Individual Related Substances (HPLC): RRT1.05
Experimental: A sample of amorphous form of Compound 1 was tested by different analytical methods and the data was reported in the “Time Zero” column (Table 3). These analytical methods included: HPLC and Karl Fisher (KF). The sample was placed in double Low-Density Polyethylene (LDPE) bags, sealed with a cable tie, then placed in a High-Density Polyethylene (HDPE) bottle with foil and heat-induction sealed, with 0.5 g desiccant between LDPE bags. The HDPE bottle was stored inside an environment chamber at 25° C. and 60% relative humidity (RH). After 12 months inside the environment chamber, the sample was tested again by the same analytical methods.

[2] = Dynamic vapor sorption (DVS) of the amorphous form; format: physicochemical
Experimental: To evaluate the hygroscopicity and physical stability of the amorphous form of Compound 1 under different humidity, dynamic vapor sorption (DVS) data was collected at 25° C. after the sample was pre-equilibrated at 0% RH to remove unbounded water. DVS was measured using a VTI SGA-100 Vapor Sorption Analyzer. Sorption and desorption data was collected over a range from 5% to 95% RH at 10% RH increments under a nitrogen purge. The equilibrium criterion used for analysis was less than 0.0100% weight change in 5 minutes with a maximum equilibrium time of 3 hours.

[3] = Solubility in IV formulation saline/PEG400/Tween80; format: physicochemical
Experimental: Intravenous (IV) formulations of a crystalline form of Compound 1 and the amorphous form of Compound 1 were prepared by contacting the amorphous of crystalline Compound 1 with saline/PEG400/Tween80 (88:10:1). The crystalline form of Compound 1 was prepared as described in Example 1, the amorphous form of Compound was prepared as described in Example 2, Method 1.

[4] = Kinetic solubility in 0.1 N HCl, FaSSGF and FeSSIF at 37° C.; format: physicochemical
Experimental: The in vitro solubility of a crystalline form of Compound 1 and the amorphous form of Compound 1 was tested.
The amorphous form was prepared as described in Example 2, Method 1, and the crystalline form of Compound 1 was prepared as described in Example 1.
Crystalline and amorphous forms of Compound 1 were saturated in three different media: 0.1 N HCl solution, Fasted State Simulated Gastric Fluid (FaSSGF), and Fed State Simulated Intestinal Fluid (FeSSIF). The samples were shaken inside a 37° C. water bath at 40 rpm. The concentration of Compound 1 dissolved in these samples was measured by HPLC at four different time points (0.5, 1, 2 and 4 hours).

[5] = In vivo rat PK study, oral aqueous liquid suspension formulation
Experimental: An in vivo rat PK study was conducted to compare the PK profile and bioavailability of crystalline form against amorphous form of Compound 1 in an aqueous liquid suspension formulation, which contained 0.5% w/v Hydroxypropyl Cellulose (Klucel GF grade) and 0.5% w/v Poloxamer F-68 (BASF Kolliphor P188). Each animal was orally administrated 10 mg/kg of Compound 1 at 5 mL/kg dosing volume (a dosing concentration of 2 mg/mL).

[6] = saline/PEG400/Tween80 (88:10:1), 0.5 Hr.
[7] = saline/PEG400/Tween80 (88:10:1), 1 Hr.
[8] = saline/PEG400/Tween80 (88:10:1), 2 Hr.
[9] = saline/PEG400/Tween80 (88:10:1), 4 Hr.
[10] = oral 10 mg/kg, suspension in 0.5% w/v Klucel GF and 0.5% w/v Poloxamer F-68, 10 mg/kg

## Cc1ccc(NC(=O)[C@H]2CCCN(C(=O)c3c(C)cccc3F)[C@H]2c2ccc(NC3CCCC3)cc2)cc1C(F)(F)F [Amorphous Compound 1, (2R,3S)-2-(4-(cyclopentylamino)phenyl)-1-(2-fluoro-6-methylbenzoyl)-N-(4-methyl-3-(trifluoromethyl)phenyl)piperidine-3-carboxamide]
[1]; RRT0.45, Time Zero
  Unspecified Individual Related Substances (HPLC): RRT0.45: <0.05%
[1]; RRT0.50, Time Zero
  Unspecified Individual Related Substances (HPLC): RRT0.50: <0.05%
[1]; RRT0.90, Time 12 months (25° C./60% RH)
  Unspecified Individual Related Substances (HPLC): RRT0.90: 0.20%
[1]; RRT0.90, Time Zero
  Unspecified Individual Related Substances (HPLC): RRT0.90: 0.05%
[1]; RRT0.96, Time 12 months (25° C./60% RH)
  Unspecified Individual Related Substances (HPLC): RRT0.96: <0.05%
[1]; RRT0.96, Time Zero
  Unspecified Individual Related Substances (HPLC): RRT0.96: <0.05%
[1]; Time 12 months (25° C./60% RH)
  Specified Individual Related Substances (HPLC): RRT1.05: <0.05%
  Appearance: Off-white Powder
  Potency (HPLC): 98.9% w/w
  Total Impurities and Related Substances (HPLC): 0.20%
  Water Content (KF): 0.31%
  enantiomeric impurity: 0.0%
[1]; Time Zero
  Specified Individual Related Substances (HPLC): RRT1.05: 0.08%
  Appearance: Off-white Powder
  Potency (HPLC): 99.5% w/w
  Total Impurities and Related Substances (HPLC): 0.38%
  Water Content (KF): 0.33%
  enantiomeric impurity: 0.0%
[1]; RRT1.06, Time 12 months (25° C./60% RH)
  Unspecified Individual Related Substances (HPLC): RRT1.06: 0.07%
[1]; RRT1.14, Time 12 months (25° C./60% RH)
  Unspecified Individual Related Substances (HPLC): RRT1.14: <0.05%
[1]; RRT1.14, Time Zero
  Unspecified Individual Related Substances (HPLC): RRT1.14: 0.05%
[1]; RRT1.16, Time Zero
  Unspecified Individual Related Substances (HPLC): RRT1.16: <0.05%
[1]; RRT1.20, Time Zero
  Unspecified Individual Related Substances (HPLC): RRT1.20: 0.22%
[1]; RRT1.21, Time Zero
  Unspecified Individual Related Substances (HPLC): RRT1.21: 0.06%
[1]; RRT1.22, Time Zero
  Unspecified Individual Related Substances (HPLC): RRT1.22: <0.05%
[2]; DVS, 25° C.
  hygroscopicity: low hygroscopicity
  hysteresis between adsorption and desorption (DVS plot): no hysteresis
[2]; XRPD, FIG. 7
  form change by XRPD before and after DVS test: no form change
[2]; about 0% RH to about 65% RH at 25° C.
  weight gain after dynamic vapor sorption cycle: about 0.31%
[3]; particularly at early time points
  aqueous solubility in an IV formulation compared to the crystalline form: improved the aqueous solubility
[3]; saline/PEG400/Tween80 (88:10:1) IV formulation, aqueous with cosolvent or surfactant or cyclodextrin, thermodynamic from solid, saline/PEG400/Tween80 (88:10:1), 8 Hr.
  solubility at 8 h: 35.6 µg/mL (≈ 61.2 µM)
[3]; saline/PEG400/Tween80 (88:10:1) IV formulation, aqueous with cosolvent or surfactant or cyclodextrin, thermodynamic from solid, saline/PEG400/Tween80 (88:10:1), 24 Hr.
  solubility at 24 h: 28.9 µg/mL (≈ 49.7 µM)
[3]; saline/PEG400/Tween80 (88:10:1) IV formulation, aqueous with cosolvent or surfactant or cyclodextrin, thermodynamic from solid, saline/PEG400/Tween80 (88:10:1), 48 Hr.
  solubility at 48 h: 26.9 µg/mL (≈ 46.2 µM)
[3]; saline/PEG400/Tween80 (88:10:1) IV formulation, aqueous with cosolvent or surfactant or cyclodextrin, thermodynamic from solid, saline/PEG400/Tween80 (88:10:1), 96 Hr.
  solubility at 96 h: 26.3 µg/mL (≈ 45.2 µM)
[3]; [6]
  Solubility in IV Formulation: 140.0 µg/mL (≈ 241 µM)
[3]; [7]
  Solubility in IV Formulation: 150.6 µg/mL (≈ 259 µM)
[3]; [8]
  Solubility in IV Formulation: 96.1 µg/mL (≈ 165 µM)
[3]; [9]
  Solubility in IV Formulation: 52.8 µg/mL (≈ 90.8 µM)
[4]; 0.1N HCl (pH 1.06), 0.5 Hr.
  CCX168 Solubility at 37° C.: 47.5 µg/mL
[4]; 0.1N HCl (pH 1.06), 1 Hr.
  CCX168 Solubility at 37° C.: 54.0 µg/mL
[4]; 0.1N HCl (pH 1.06), 2 Hr.
  CCX168 Solubility at 37° C.: 74.7 µg/mL
[4]; 0.1N HCl (pH 1.06), 4 Hr.
  CCX168 Solubility at 37° C.: 61.7 µg/mL
[4]; FaSSGF (pH 1.64), 0.5 Hr.
  CCX168 Solubility at 37° C.: 9.3 µg/mL
[4]; FaSSGF (pH 1.64), 1 Hr.
  CCX168 Solubility at 37° C.: 7.8 µg/mL
[4]; FaSSGF (pH 1.64), 2 Hr.
  CCX168 Solubility at 37° C.: BQL (BQL = Less than 3.1 μg/mL)
[4]; FaSSGF (pH 1.64), 4 Hr.
  CCX168 Solubility at 37° C.: ND (ND = Not Detected)
[4]; FeSSIF (pH 4.90), 0.5 Hr.
  CCX168 Solubility at 37° C.: 6.0 µg/mL
[4]; FeSSIF (pH 4.90), 1 Hr.
  CCX168 Solubility at 37° C.: 9.9 µg/mL
[4]; FeSSIF (pH 4.90), 2 Hr.
  CCX168 Solubility at 37° C.: 9.0 µg/mL
[4]; FeSSIF (pH 4.90), 4 Hr.
  CCX168 Solubility at 37° C.: 7.4 µg/mL
[5]; in vivo, oral 10 mg/kg, suspension in 0.5% w/v Klucel GF and 0.5% w/v Poloxamer F-68
  AUC(0-inf): 2470 ng·h/mL
[5]; in vivo, oral 10 mg/kg, suspension in 0.5% w/v Klucel GF and 0.5% w/v Poloxamer F-68, read-out: AUC0-t
  AUC0-t: 2410 ng·h/mL
[5]; in vivo, oral 10 mg/kg, suspension in 0.5% w/v Klucel GF and 0.5% w/v Poloxamer F-68, read-out: Cmax
  Cmax: 388 ng/mL
[5]; oral 10 mg/kg suspension
  Cmax and AUC compared to the formulation containing crystalline form: significant increase in Cmax and AUC
[5]; [10]
  MRT: 5.6 h
  Tmax: 2 h
  t1/2: 4.7 h

## Cc1ccc(NC(=O)[C@H]2CCCN(C(=O)c3c(C)cccc3F)[C@H]2c2ccc(NC3CCCC3)cc2)cc1C(F)(F)F [Crystalline Compound 1, (2R,3S)-2-(4-(cyclopentylamino)phenyl)-1-(2-fluoro-6-methylbenzoyl)-N-(4-methyl-3-(trifluoromethyl)phenyl)piperidine-3-carboxamide]
[3]; [6]
  Solubility in IV Formulation: 15.2 µg/mL (≈ 26.1 µM)
[3]; [7]
  Solubility in IV Formulation: 17.2 µg/mL (≈ 29.6 µM)
[3]; [8]
  Solubility in IV Formulation: 20.5 µg/mL (≈ 35.2 µM)
[3]; [9]
  Solubility in IV Formulation: 21.6 µg/mL (≈ 37.1 µM)
[3]; saline/PEG400/Tween80 (88:10:1), 8 Hr.
  Solubility in IV Formulation: 22.0 µg/mL (≈ 37.8 µM)
[3]; saline/PEG400/Tween80 (88:10:1), 24 Hr.
  Solubility in IV Formulation: 21.9 µg/mL (≈ 37.7 µM)
[3]; saline/PEG400/Tween80 (88:10:1), 48 Hr.
  Solubility in IV Formulation: 21.9 µg/mL (≈ 37.7 µM)
[3]; saline/PEG400/Tween80 (88:10:1), 96 Hr.
  Solubility in IV Formulation: 21.6 µg/mL (≈ 37.1 µM)
[4]; 0.1N HCl (pH 1.06), 0.5 Hr.
  CCX168 Solubility at 37° C.: ND (ND = Not Detected)
[4]; 0.1N HCl (pH 1.06), 1 Hr.
  CCX168 Solubility at 37° C.: ND (ND = Not Detected)
[4]; 0.1N HCl (pH 1.06), 2 Hr.
  CCX168 Solubility at 37° C.: ND (ND = Not Detected)
[4]; 0.1N HCl (pH 1.06), 4 Hr.
  CCX168 Solubility at 37° C.: ND (ND = Not Detected)
[4]; FaSSGF (pH 1.64), 0.5 Hr.
  CCX168 Solubility at 37° C.: ND (ND = Not Detected)
[4]; FaSSGF (pH 1.64), 1 Hr.
  CCX168 Solubility at 37° C.: ND (ND = Not Detected)
[4]; Fasted State Simulated Gastric Fluid (FaSSGF), 37 °C, pH 1.64, fassgf or other biorelevant, thermodynamic from solid, FaSSGF (pH 1.64), 2 Hr., read-out: CCX168 Solubility at 37° C.
  solubility at 2 h: < 3.1 µg/mL
[4]; Fasted State Simulated Gastric Fluid (FaSSGF), 37 °C, pH 1.64, fassgf or other biorelevant, thermodynamic from solid, FaSSGF (pH 1.64), 4 Hr., read-out: CCX168 Solubility at 37° C.
  solubility at 4 h: < 3.1 µg/mL
[4]; FeSSIF (pH 4.90), 1 Hr.
  CCX168 Solubility at 37° C.: ND (ND = Not Detected)
[4]; FeSSIF (pH 4.90), 2 Hr.
  CCX168 Solubility at 37° C.: ND (ND = Not Detected)
[4]; FeSSIF (pH 4.90), 4 Hr.
  CCX168 Solubility at 37° C.: ND (ND = Not Detected)
[4]; Fed State Simulated Intestinal Fluid (FeSSIF), 37 °C, pH 4.9, fessif, thermodynamic from solid, FeSSIF (pH 4.90), 0.5 Hr., read-out: CCX168 Solubility at 37° C.
  solubility at 0.5 h: < 3.1 µg/mL
[5]; in vivo, po, 10 mg/kg, oral 10 mg/kg, suspension in 0.5% w/v Klucel GF and 0.5% w/v Poloxamer F-68
  half-life: 3.9 h
[5]; in vivo, po, 10 mg/kg, oral 10 mg/kg, suspension in 0.5% w/v Klucel GF and 0.5% w/v Poloxamer F-68, read-out: MRT
  MRT: 6 h
[5]; in vivo, po, 10 mg/kg, oral 10 mg/kg, suspension in 0.5% w/v Klucel GF and 0.5% w/v Poloxamer F-68, read-out: Tmax
  Tmax: 1.5 h
[5]; [10]
  AUC0-t: 983 ng·h/mL
  AUCinf: 996 ng·h/mL
  Cmax: 129 ng/mL
